In US8450090B2, “Compositions and methods for promoting fatty acid production in plants” (The Regents of the University of Colorado, a body corporate, priority 2009, dated 2013):

Tests used:
Schizochytrium = assay: Forward versus side scatter flow cytometry for oxamate-induced cell death; format: cell-based; conditions: at higher concentrations of oxamate, FIG. 3
Description: Schizochytrium or chlamydomonas were harvested, counted, and resuspended at 10^6 cells/100 μl of PBS containing 2.5% fetal calf serum in preparation for flow cytometric analysis. Lysosensor dyes were used to detect fatty acids in glyoxosomes or oil droplets. Mitochondrial membrane potential was assessed using Mitotracker Red (CM-H2XROS, BD Pharmingen). The cells were resuspended in PBS containing 2.5% fetal calf serum containing a final concentration of 0.5 micromolar Mitotracker dye. The cells were incubated at 37° for 20 minutes, washed twice in PBS containing 2.5% fetal calf serum and analyzed flow cytometrically. Data were acquired on a Coulter Excel flow cytometer (Coulter, Hialeah, Fla.) and analyzed with FloJo software. […] Each sample population was classified for cell size (forward scatter) and complexity (side scatter), gated on a population of interest and evaluated using 30,000 cells.
Percents: Gating is a tool provided by FloJo software and allows for the analysis of a certain population of cells. […] After the gates were drawn, a percent value of dead cells was calculated by taking the number of dead cells divided by the number of total cells and multiplying by one hundred.
The bar graph in FIG. 3 depicts the increase in geometric mean of fluorescence in the treated group minus the untreated. […]

cell wall UCP = conditions: wild type strains of C. reinhardtii; prior studies, U.S. Pat. No. 7,105,718; cited from earlier work

NC(=O)C(=O)O [Oxamate, oxamate]
percentage of cell death (Schizochytrium): significantly increased percentage of cell death

CNc1cnn(-c2cccc(C(F)(F)F)c2)c(=O)c1Cl [norflurazon]
cell wall expression of UCP (cell wall UCP): did upregulate cell wall expression of UCP
